The results in this text go back to ChEMBL document CHEMBL4033685, “C21-steroidal pregnane sapogenins and their derivatives as anti-inflammatory agents” (Bioorg Med Chem, 2017).

The target in assay [1] is Toll-like receptor 3 (Homo sapiens) (UniProt O15455). Put plainly: Antagonist activity at TLR3 in human THP1 cells assessed as inhibition of poly IC-stimulated IL-6 mRNA level at 10 uM after 16 hrs by RT-PCR method. It counts as cell-based.
Assay [2] addresses T1, Toll-like receptor 4 (Homo sapiens, UniProt O00206). In words: Antagonist activity at TLR4 in human THP1 cells assessed as inhibition of LPS-stimulated RANTES mRNA level at 10 uM after 16 hrs by RT-PCR method. The assay is classed as cell-based.
Assay [3] has as its system THP-1. In words: Downregulation of IkBalpha protein expression in human THP1 cells at 10 uM after 3 hrs by Western blot analysis. It counts as functional, cell-based. (In general: A western blot detects proteins with antibodies after separation by electrophoresis.)
Assay [4] concerns THP-1. In words: Downregulation of IkBalpha protein expression in LPS-stimulated human THP1 cells at 10 uM after 3 hrs by Western blot analysis. It counts as functional, cell-based.
For assay [5], the system named is THP-1. In words: Upregulation of IKKalpha protein expression in LPS-stimulated human THP1 cells at 10 uM after 3 hrs by Western blot analysis. It counts as functional, cell-based.
Assay [6] deals with Toll-like receptor 2 (Homo sapiens) (UniProt O60603). In words: Antagonist activity at TLR2 in human THP1 cells assessed as inhibition of PGN-stimulated IL-6 mRNA level at 10 uM after 16 hrs by RT-PCR method. It counts as cell-based.
The target of assay [7] is T1, Toll-like receptor 4. In words: Antagonist activity at TLR4 in human THP1 cells assessed as inhibition of LPS-stimulated NF-kB non-canonical signaling pathway by measuring decrease in p100/p52 phosphorylation at 10 uM after 3 hrs by Western blot analysis. It counts as cell-based.
Assay [8] deals with T1, Toll-like receptor 4. In words: Antagonist activity at TLR4 in human THP1 cells assessed as inhibition of LPS-stimulated IL-1beta level at 10 uM by bead based immunoassay. It counts as cell-based.
A further assay has as its system AD293. In words: Upregulation of IKKalpha protein expression in TNFalpha-stimulated human AD293 cells at 10 uM after 3 hrs by Western blot analysis. The assay is classed as functional, cell-based.
Assay [9] deals with Toll-like receptor 2 (Homo sapiens) (UniProt O60603). Put plainly: Antagonist activity at TLR2 in human THP1 cells assessed as inhibition of PGN-stimulated RANTES mRNA level at 10 uM after 16 hrs by RT-PCR method. The assay is classed as cell-based.
Assay [10] concerns the target Toll-like receptor 3 (Homo sapiens) (UniProt O15455). In words: Antagonist activity at TLR3 in human THP1 cells assessed as inhibition of poly IC-stimulated RANTES mRNA level at 10 uM after 16 hrs by RT-PCR method. It counts as cell-based.
In assay [11] the target is Toll-like receptor 2 (Homo sapiens) (UniProt O60603). In words: Antagonist activity at TLR2 in human THP1 cells assessed as inhibition of PGN-stimulated TNFalpha level at 10 uM by bead based immunoassay. The assay is classed as cell-based.
In assay [12] the target is T1, Toll-like receptor 4. Put plainly: Antagonist activity at TLR4 in human THP1 cells assessed as inhibition of LPS-stimulated NF-kB canonical signaling pathway by measuring decrease in IkBalpha phosphorylation at 10 uM after 3 hrs by Western blot analysis. The assay is classed as cell-based.
Assay [13] concerns the target T1, Toll-like receptor 4. Put plainly: Antagonist activity at TLR4 in human THP1 cells assessed as inhibition of LPS-stimulated IL-6 mRNA level at 10 uM after 16 hrs by RT-PCR method. It counts as cell-based.
The target of assay [14] is T1, Toll-like receptor 4. In words: Antagonist activity at TLR4 in human THP1 cells assessed as inhibition of LPS-stimulated NFkappaB p65 protein expression at 10 uM after 3 hrs by Western blot analysis. It counts as cell-based.
The target of assay [15] is Transcription factor p65 (Homo sapiens) (UniProt Q04206). Put plainly: Upregulation of NF-kB p65 phosphorylation (unknown origin) expressed in human AD293 cells at 10 uM after 3 hrs by Western blot analysis. It counts as cell-based.
The target of assay [16] is T1, Toll-like receptor 4. In words: Antagonist activity at TLR4 in human THP1 cells assessed as inhibition of LPS-stimulated RANTES mRNA level after 16 hrs by RT-PCR method. The assay is classed as cell-based.
Assay [17] concerns the target Toll-like receptor 2 (Homo sapiens) (UniProt O60603). In words: Antagonist activity at TLR2 in human THP1 cells assessed as inhibition of PGN-stimulated RANTES mRNA level after 16 hrs by RT-PCR method. It counts as cell-based.
For assay [18], the target named is Toll-like receptor 3 (Homo sapiens) (UniProt O15455). In words: Antagonist activity at TLR3 in human THP1 cells assessed as inhibition of poly IC-stimulated RANTES mRNA level after 16 hrs by RT-PCR method. It counts as cell-based.
The target is the same in assay [19]. In words: Antagonist activity at TLR3 in human THP1 cells assessed as inhibition of poly IC-stimulated IL-6 mRNA level after 16 hrs by RT-PCR method. It counts as cell-based.
Assay [20] deals with Toll-like receptor 2 (Homo sapiens) (UniProt O60603). In words: Antagonist activity at TLR2 in human THP1 cells assessed as inhibition of PGN-stimulated IL-6 mRNA level after 16 hrs by RT-PCR method. It counts as cell-based.
Assay [21] has as its target T1, Toll-like receptor 4. Put plainly: Antagonist activity at TLR4 in human THP1 cells assessed as inhibition of LPS-stimulated IL-6 mRNA level after 16 hrs by RT-PCR method. It counts as cell-based.

The structures appear in SMILES notation. The source made the active and inactive calls. No cut-off for these calls is given here.

Toll-like receptor 2 (Homo sapiens), sequence (O60603 whole entry): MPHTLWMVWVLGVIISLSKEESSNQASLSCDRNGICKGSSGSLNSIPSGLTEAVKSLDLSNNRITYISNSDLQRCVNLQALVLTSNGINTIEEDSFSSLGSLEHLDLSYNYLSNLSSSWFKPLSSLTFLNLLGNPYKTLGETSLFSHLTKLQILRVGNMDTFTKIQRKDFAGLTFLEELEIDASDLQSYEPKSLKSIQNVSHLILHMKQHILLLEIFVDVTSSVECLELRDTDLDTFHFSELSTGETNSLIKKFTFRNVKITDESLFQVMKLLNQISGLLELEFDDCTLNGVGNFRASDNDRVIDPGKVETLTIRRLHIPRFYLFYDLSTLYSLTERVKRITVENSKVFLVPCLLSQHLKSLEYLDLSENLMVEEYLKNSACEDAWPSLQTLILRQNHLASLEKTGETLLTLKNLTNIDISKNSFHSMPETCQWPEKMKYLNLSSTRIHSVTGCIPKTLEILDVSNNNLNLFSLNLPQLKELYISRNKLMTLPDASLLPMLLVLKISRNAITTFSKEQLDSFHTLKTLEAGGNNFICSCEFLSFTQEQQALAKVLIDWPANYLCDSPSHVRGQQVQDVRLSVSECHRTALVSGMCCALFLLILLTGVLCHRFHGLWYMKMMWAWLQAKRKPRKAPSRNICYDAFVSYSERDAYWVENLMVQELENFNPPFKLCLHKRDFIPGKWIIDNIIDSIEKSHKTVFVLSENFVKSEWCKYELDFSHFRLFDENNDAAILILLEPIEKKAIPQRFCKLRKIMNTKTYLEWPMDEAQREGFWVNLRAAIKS
T1 sequence (O00206 whole entry): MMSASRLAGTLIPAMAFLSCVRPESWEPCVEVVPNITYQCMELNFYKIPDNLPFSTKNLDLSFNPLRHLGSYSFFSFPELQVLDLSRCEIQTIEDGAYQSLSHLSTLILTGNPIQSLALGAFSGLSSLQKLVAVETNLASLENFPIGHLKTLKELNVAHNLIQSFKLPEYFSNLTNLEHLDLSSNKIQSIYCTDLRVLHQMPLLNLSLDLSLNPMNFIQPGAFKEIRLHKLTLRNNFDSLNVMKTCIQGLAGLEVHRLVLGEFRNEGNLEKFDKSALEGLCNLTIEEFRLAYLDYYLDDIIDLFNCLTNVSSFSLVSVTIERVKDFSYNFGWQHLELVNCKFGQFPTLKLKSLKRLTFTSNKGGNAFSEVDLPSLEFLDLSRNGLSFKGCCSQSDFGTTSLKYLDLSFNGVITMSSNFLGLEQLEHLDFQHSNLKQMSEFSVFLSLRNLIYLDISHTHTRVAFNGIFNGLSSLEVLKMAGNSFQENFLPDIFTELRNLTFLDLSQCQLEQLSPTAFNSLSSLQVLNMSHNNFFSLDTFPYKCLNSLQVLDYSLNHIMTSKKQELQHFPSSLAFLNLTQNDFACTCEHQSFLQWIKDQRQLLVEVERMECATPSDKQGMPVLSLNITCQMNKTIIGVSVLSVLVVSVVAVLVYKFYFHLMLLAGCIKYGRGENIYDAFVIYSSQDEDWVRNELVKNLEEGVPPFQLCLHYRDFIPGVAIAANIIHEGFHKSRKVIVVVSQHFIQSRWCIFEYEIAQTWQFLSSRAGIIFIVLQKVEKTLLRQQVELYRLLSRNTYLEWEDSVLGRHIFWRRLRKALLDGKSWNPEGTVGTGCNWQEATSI
Toll-like receptor 3 (Homo sapiens), sequence (O15455 whole entry): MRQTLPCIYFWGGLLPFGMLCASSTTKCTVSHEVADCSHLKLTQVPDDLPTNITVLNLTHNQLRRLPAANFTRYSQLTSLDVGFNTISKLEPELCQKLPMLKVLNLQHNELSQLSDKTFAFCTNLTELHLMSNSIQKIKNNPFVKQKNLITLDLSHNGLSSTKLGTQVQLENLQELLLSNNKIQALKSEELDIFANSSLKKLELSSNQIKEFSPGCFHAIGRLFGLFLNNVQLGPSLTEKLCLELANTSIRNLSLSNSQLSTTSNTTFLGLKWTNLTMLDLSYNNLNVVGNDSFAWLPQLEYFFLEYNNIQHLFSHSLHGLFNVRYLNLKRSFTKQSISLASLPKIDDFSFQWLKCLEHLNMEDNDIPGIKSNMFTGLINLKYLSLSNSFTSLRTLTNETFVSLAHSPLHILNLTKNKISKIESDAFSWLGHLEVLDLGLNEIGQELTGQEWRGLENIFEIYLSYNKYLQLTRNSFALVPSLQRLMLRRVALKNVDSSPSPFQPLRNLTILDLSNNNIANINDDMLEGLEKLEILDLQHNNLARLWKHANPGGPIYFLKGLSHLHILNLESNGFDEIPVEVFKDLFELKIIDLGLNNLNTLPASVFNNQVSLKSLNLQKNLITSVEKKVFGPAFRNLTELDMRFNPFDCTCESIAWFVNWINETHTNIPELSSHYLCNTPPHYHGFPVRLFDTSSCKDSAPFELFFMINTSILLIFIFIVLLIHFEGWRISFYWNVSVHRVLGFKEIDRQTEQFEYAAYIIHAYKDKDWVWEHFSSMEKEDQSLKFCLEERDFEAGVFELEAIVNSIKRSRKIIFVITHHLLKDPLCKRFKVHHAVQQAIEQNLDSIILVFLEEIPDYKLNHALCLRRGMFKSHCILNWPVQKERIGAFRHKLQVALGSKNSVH
Transcription factor p65 (Homo sapiens), sequence (Q04206 whole entry): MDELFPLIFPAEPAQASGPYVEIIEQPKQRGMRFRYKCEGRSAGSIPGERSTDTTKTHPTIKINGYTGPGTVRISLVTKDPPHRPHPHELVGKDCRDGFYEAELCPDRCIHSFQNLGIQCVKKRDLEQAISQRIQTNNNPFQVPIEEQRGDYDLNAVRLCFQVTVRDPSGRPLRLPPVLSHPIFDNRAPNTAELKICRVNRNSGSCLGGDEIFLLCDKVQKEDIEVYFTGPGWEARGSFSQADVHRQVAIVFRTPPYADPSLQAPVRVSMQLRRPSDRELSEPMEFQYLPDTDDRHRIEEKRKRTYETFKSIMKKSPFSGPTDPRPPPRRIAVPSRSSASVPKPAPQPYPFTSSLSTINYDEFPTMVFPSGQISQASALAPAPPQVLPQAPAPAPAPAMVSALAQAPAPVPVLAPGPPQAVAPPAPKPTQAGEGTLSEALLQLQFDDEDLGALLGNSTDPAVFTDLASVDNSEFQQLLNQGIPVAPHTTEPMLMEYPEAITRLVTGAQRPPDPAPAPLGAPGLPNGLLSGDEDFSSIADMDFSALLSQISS

For `CC(=O)[C@]1(O)CC[C@@]2(O)[C@]1(C)[C@H](OC(=O)c1ccc(O)cc1)C[C@@H]1[C@@]3(C)CC[C@H](OC(=O)CCl)CC3=CC[C@]12O`, the inhibition result (in [1]; on Toll-like receptor 4 [2]; in [6]; at Toll-like receptor 4 [8]; in assay [9]; in [10]) was “Active” each time. The inhibition result (in [11]; at Toll-like receptor 4 [13]; at Toll-like receptor 4 [14]) was “Active” each time. In addition, the outcome (in the assay on THP-1 [3]; in the assay with THP-1 [4]; with THP-1 [5]; in the assay with AD293; in assay [15]) was Active. Further, the inhibition result on Toll-like receptor 4 [7] and on Toll-like receptor 4 [12] was “inactive” each time.
Regarding `COc1ccc(/C=C/C(=O)O[C@H]2CC[C@@]3(C)C(=CC[C@]4(O)[C@@H]3C[C@@H](OC(=O)/C=C(\C)C(C)C)[C@@]3(C)[C@]4(O)CC[C@@]3(O)C(C)=O)C2)cc1`, the inhibition entry (at Toll-like receptor 4 [16]; in [17]; in assay [18]; in assay [19]; in [20]; at Toll-like receptor 4 [21]) was “Dose-dependent effect” each time. Besides, the result with THP-1 [5] and in the assay on AD293 was Active. Besides, on Toll-like receptor 4 [7], the inhibition entry was “inactive”. For the same molecule, the inhibition entry (at Toll-like receptor 4 [8]; in [11]) was “Active” each time.
